The values below come from ChEMBL document CHEMBL4152292, “Rational design of carbamate-based dual binding site and central AChE inhibitors by a "biooxidisable" prodrug approach: Synthesis, in vitro evaluation and docking studies” (Eur J Med Chem, 2018).

Data set [1] concerns the target T1, Acetylcholinesterase (Homo sapiens, UniProt P22303). Briefly: Inhibition of human erythrocytes AChE using acetylthiocholine iodide as substrate preincubated for 5 mins followed by substrate addition measured every min for 10 mins by Ellman's method. For orientation: Ellman's reagent forms a yellow product with free thiols.
The target of data set [2] is T2, Acetylcholinesterase (Bos taurus, UniProt P23795).
T2 sequence (P23795 whole entry): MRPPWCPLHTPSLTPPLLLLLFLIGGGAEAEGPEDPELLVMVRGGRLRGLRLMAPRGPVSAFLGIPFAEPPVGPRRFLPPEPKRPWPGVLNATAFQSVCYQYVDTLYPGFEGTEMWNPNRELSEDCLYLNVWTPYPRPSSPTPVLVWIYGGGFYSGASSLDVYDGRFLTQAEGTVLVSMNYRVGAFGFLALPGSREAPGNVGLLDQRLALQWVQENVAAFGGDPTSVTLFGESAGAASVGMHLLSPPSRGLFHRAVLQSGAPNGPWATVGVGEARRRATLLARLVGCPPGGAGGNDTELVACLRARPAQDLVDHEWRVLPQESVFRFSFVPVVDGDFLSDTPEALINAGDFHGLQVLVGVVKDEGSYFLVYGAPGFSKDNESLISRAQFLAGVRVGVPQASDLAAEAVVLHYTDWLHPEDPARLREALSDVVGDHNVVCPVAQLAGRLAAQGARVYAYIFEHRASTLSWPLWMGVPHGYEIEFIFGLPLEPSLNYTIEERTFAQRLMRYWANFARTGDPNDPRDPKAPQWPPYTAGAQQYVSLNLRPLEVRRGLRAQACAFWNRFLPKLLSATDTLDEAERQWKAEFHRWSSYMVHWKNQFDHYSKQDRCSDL
Briefly: Inhibition of bovine erythrocytes AChE using acetylthiocholine iodide as substrate by Ellman's method.

In data set [3] the target is T1, Acetylcholinesterase. As to the kind of experiment: Displacement of propidium iodide from PAS of human AChE after 6 hrs by fluorescence assay.
Data set [4] has as its target Amyloid-beta precursor protein (Homo sapiens) (UniProt P05067). As to the kind of experiment: Inhibition of self-induced aggregation of amyloid beta (1 to 42 residues) (unknown origin) at 10 uM measured every 5 mins by Thioflavin T dye based fluorescence assay relative to control.
Data set [5] can be described thus: Apparent permeability from apical to basolateral side in human Caco2 cells at 10 uM at pH 7.4 measured after 60 mins by HPLC-MS/MS method. It counts as ADME, cell-based. To be noted: Caco-2, pH 7.4. For orientation: Caco-2 cells form a polarised layer with tight junctions and transporters.
Data set [6] is described as follows: Apparent permeability from apical to basolateral side in human Caco2 cells assessed as drug recovery at 10 uM at pH 7.4 measured after 60 mins by HPLC-MS/MS method. It counts as ADME, cell-based. To be noted: Caco-2, pH 7.4, read-out: Drug recovery.
Data set [7] has as its target T1, Acetylcholinesterase. As to the kind of experiment: Inhibition of human erythrocytes AChE at 10^-5 M using acetylthiocholine iodide as substrate preincubated for 5 mins followed by substrate addition measured every min for 10 mins by Ellman's method.

By IC50 is commonly meant the concentration needed to halve the response being measured. High values mean weaker potency, low ones greater potency. By inhibition is commonly meant how much of the control response was suppressed. As usually defined, the Papp A→B is the apparent permeability from the apical to the basolateral side of a cell layer.

T1 sequence (P22303 whole entry): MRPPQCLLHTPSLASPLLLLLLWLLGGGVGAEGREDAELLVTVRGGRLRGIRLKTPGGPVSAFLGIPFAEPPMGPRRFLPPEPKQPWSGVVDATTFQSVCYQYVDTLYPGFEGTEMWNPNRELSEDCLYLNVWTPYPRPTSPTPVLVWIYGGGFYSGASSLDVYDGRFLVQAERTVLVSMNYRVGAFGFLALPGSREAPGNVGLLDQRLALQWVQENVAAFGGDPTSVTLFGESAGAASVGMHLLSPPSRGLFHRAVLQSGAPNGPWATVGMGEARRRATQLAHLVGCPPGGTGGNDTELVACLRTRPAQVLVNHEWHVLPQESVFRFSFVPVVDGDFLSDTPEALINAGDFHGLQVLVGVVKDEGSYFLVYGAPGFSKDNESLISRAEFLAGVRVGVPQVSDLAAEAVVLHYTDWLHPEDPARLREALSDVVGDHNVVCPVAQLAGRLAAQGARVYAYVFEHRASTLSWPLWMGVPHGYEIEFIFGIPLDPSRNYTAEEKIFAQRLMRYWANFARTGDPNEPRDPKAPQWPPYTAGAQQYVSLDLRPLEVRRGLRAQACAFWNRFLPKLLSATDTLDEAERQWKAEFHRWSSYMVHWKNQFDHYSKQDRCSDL
Amyloid-beta precursor protein (Homo sapiens), sequence (P05067 whole entry, the tested form may be a part): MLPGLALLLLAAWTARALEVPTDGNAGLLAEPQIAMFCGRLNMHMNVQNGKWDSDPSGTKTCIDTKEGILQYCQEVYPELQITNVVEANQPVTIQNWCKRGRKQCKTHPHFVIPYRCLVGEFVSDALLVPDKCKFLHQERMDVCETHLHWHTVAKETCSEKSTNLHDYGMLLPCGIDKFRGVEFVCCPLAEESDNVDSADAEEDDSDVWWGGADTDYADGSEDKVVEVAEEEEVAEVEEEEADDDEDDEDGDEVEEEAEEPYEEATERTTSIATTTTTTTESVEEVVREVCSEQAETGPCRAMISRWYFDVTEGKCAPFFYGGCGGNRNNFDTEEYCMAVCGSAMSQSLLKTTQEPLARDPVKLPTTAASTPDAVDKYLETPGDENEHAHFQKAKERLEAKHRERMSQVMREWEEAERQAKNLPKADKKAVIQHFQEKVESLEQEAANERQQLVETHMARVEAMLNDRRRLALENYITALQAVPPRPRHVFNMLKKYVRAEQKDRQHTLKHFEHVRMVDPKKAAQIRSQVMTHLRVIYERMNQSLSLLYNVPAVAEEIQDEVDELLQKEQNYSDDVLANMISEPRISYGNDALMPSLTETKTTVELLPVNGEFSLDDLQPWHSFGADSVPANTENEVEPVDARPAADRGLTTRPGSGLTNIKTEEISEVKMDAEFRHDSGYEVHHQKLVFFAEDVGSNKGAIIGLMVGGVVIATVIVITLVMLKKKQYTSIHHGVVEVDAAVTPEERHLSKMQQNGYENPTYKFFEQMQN

`COC(=O)CNC(=O)c1cc2c(OC(=O)N(C)C)cccc2[n+](C)c1` gave a half-maximal inhibitory concentration (IC50) in data set [1] of 0.093 µM.
In turn, `Cc1c(C(=O)N(C)C)cc2c(OC(=O)N(C)C)cccc2[n+]1C` came in with an IC50 in data set [1] greater than 10 µM.
Still for that read-out and setting: the figure for `CN(C)C(=O)Oc1cccc2c1cc(C(=O)NC1CCCCC1)c[n+]2C` is 0.02 µM; for `CN(C)C(=O)Oc1cccc2c1cc(C(=O)Nc1ccccc1)c[n+]2C` it is 0.03 µM; for `CNC(=O)c1cc2c(OC(=O)N(C)C)cccc2[n+](Cc2ccccc2)c1` it is 1.16 µM.
On the same count and under the same terms, the figure for `CN(C)C(=O)Oc1cccc2c1cc(C(=O)NCCOCCO)c[n+]2C` is 0.037 µM; for `CC(C)NC(=O)c1cc2c(OC(=O)N(C)C)cccc2[n+](C)c1` it is 0.058 µM; for `Cc1c(C(=O)N(C)C)c(C)[n+](C)c2cccc(OC(=O)N(C)C)c12` it is greater than 10 µM.
The same measure, in the same setting: with `Cc1c(C(=O)N(C)C)c[n+](C)c2cccc(OC(=O)N(C)C)c12` the figure was greater than 10 µM.
`CNC(=O)c1cc2c(OC(=O)N(C)C)cccc2[n+](C)c1` yielded an IC50 in data set [1] of 0.077 µM.
Same read-out and setting: with `CC(C)NC(=O)c1cc2c(OC(=O)N3CCCC3)cccc2[n+](C)c1` the figure was greater than 10 µM; with `CC[n+]1cc(C(=O)NC)cc2c(OC(=O)N(C)C)cccc21`, 0.314 µM.
`CN(C)C(=O)Oc1cccc2c1cc(C(=O)NCCOCCOCCN1C(=O)c3ccccc3C1=O)c[n+]2C`: the IC50 in data set [1] and in data set [2] was 0.006 µM each time. The compound also registered an Activity in data set [3] of 20%. Also, the inhibition in data set [4] came to 14%.
`CN(C)C(=O)Oc1cccc2c1CC(C(=O)NCCOCCOCCN1C(=O)c3ccccc3C1=O)=CN2C` came in with an IC50 in data set [1] greater than 10 µM. The apical-to-basolateral permeability (Papp A→B) at 1 h, 10 µM in data set [5] amounted to 111 nm/s. For the same compound, the recovery at 1 h, 10 µM in data set [6] came out at 91%.
In data set [1], `COCCNC(=O)c1cc2c(OC(=O)N(C)C)cccc2[n+](C)c1` displayed an IC50 of 0.02 µM.
Same read-out and setting: the figure for `CN(C)C(=O)Oc1cccc2c1cc(C(=O)N(C)C)c[n+]2C` is 0.154 µM; for `CCN(C)C(=O)Oc1cccc2c1cc(C(=O)NC(C)C)c[n+]2C` it is greater than 10 µM.
In data set [1], `C[n+]1cc(C(=O)NCCOCCOCCN2C(=O)c3ccccc3C2=O)cc2c(O)cccc21` registered an IC50 greater than 10 µM. In data set [7], this compound registered an inhibition of 35%.
